Blank lines part the entries; values can stand above or below the compound they belong to. *1 amine or outer side, *2 acyl side, *3 side chain or, on linkers, in order; H or OH if unused. Where a SMILES comes first, the peptide text is derived from it. [ ]: non-standard residue; d: D form. X1 = COCCN1CCN(C[C@H](C)[C@@H](C(=O)[*:2])N(C)[*:1])CC1; MeBmt = C/C=C/C[C@@H](C)[C@@H](O)[C@H](NC)C(=O)O; NMeL = CN[C@@H](CC(C)C)C(=O)O; NMeV = CN[C@H](C(=O)O)C(C)C; dNMeA = CN[C@H](C)C(=O)O; Abu = CC[C@H](N)C(=O)O
What was measured:
[1] = clinical trials (Zeuzem 2015; Buti 2015); cited from earlier work
[2] = system: COL4A5 AS mutants (G227S, G594D, G624D, G869R, S916G, G1030S, G1107R, G1140V, G1220D, G1241C, G1241V, G1244D, P1517T, R1569Q) and Exon41-deleted variant; type: cell-based, Human; conditions: panel of 14 AS mutants, Exon41-deleted variant and wild type, FIG. 7
[3] = system: α3WT/α4WT/α5WT collagen trimer (COL4a5/WT); assay: Type IV collagen α345 trimer assay by Nano luciferase, wild-type COL4A5 stable line; type: cell-based, Human; conditions: wild-type stable cell line, FIG. 5 upper
Protocol: HEK293T cells (Human Embryonic Kidney 293) were obtained from the RIKEN Cell Bank, and thereafter addition of virus concentration solution for COL4A4-3FLAG (Puro), COL4A3-SmBiT (Hyg), COL4A5-LgBiT (BSD) (Omachi K. et al., Cell Chemical Biology 2018, 25, 634-643) in this order, exchange of drug resistance containing medium, passage and preservation of surviving cells were repeated whereby a cell line stably expressing α345 (IV) trimer was generated. COL4A5 variant G1244D was prepared using pLVSIN EF1α BSD COL4A5-LgBiT as a template and using Quikchange (registered trade mark) II Site-directed Mutagenesis Kit (STRATAGENE (registered trade mark)). The primers used were follows. PCR reactions (95° C. for 1 min, one cycle; 95° C. for 50 sec, 60° C. for 50 sec, 68° C. for 90 sec/1 kb, 18 cycles; 68° C. for […]) were performed with each Primer. […]
A cell line stably expressing split nano luciferase-fused α345 required for the NanoLuc α345 trimer assay was seeded on LumiNuc 96 well white plate (Thermo). After 24 hr, the cells were cultured in phenol red-free DMEM complete medium containing 2-phosphate ascorbic acid (200 μM), substrates were added to the culture supernatant and cells according to the standard method of NanoGlo live cell assay (Promega) reagent, and luminescence was confirmed with luminometer GloMax Navigator (Promega). […]

PPIF (cyclophilin D) [4] = target: T1, PPIF (cyclophilin D) (Homo sapiens, UniProt P30405); assay: Collagen trimer secretion promotion in G1244D HEK293T cells with cyclophilins knocked down with siRNA; type: cell-based; conditions: siRNA 15 nM against 11 cyclophilins, CsA 1 μM, Alisporivir 2 μM, FIG. 8
T1 construct: endogenous in cells; host or cells: HEK293T stably expressing split-NanoLuc alpha345 (COL4A5-G1244D), with or without siRNA knock-down
T1 sequence (P30405 30-207): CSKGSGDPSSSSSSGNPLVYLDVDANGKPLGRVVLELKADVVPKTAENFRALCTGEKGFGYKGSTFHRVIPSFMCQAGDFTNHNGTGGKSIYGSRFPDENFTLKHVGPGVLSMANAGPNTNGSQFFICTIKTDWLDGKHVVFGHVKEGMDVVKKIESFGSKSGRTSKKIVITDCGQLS
Source text: To elucidate the mechanism of collagen trimer secretion promotion by CsA and Alisporivir, cells in which cyclophilins to which CsA and Alisporivir can bind were knocked down with siRNA were produced, and the collagen trimer secretion promoting effect by CsA and Alisporivir in the cells was investigated comprehensively.
As the cells, G1244D mutation-introduced HEK293T cells—for which the effect of CsA and Alisporivir were confirmed in previous experiments—were used.
(§1) An cell line stably expressing split nano luciferase-fused α345 required for the NanoLuc α345 trimer assay was seeded on a 6 well plate (Corning) at 3×10^5 cells/well, and the siRNAs shown in Table 1 were introduced by lipofection at the time of subconfluence. The target genes are all cyclophilins, and the abbreviations in Table 1 indicate the following substances.
Lipofectamine RNAi Max was used for transfection of siRNA. The final siRNA concentration was adjusted to 15 nM, and transfection was performed according to the standard protocol. 24 hr after siRNA introduction, the cells were detached and reseeded on a LumiNuc 96 well white plate (Thermo) at 4×10^4 cells/well. […] Substrates were added 24 hr later to the culture supernatant and cells according to the standard method of NanoGlo live cell assay (Promega) reagent, and luminescence (index of trimer secretion) was measured by luminometer GloMax Navigator (Promega). […]

calcineurin = conditions: cited from earlier work
[5] = system: α3WT/α4WT/α5G1241V collagen trimer (COL4a5/G1241V); type: cell-based, Human
[6] = system: α345 (COL4A5-G1244D) collagen trimer; assay: Type IV collagen α345 trimer assay by Nano luciferase, COL4A5-G1244D stable line; type: cell-based, Human; conditions: for secretion level of collagen trimer as a function of concentration: COL4A5 (G1244D), concentration series up to 10 μM, FIG. 1-3; for collagen trimer secretion (luminescence of culture supernatant, ratio to DMSO-treated group): HEK293T line stably expressing α345 (COL4A5-G1244D), 24 hr treatment
Protocol: HEK293T cells (Human Embryonic Kidney 293) were obtained from the RIKEN Cell Bank, and thereafter addition of virus concentration solution for COL4A4-3FLAG (Puro), COL4A3-SmBiT (Hyg), COL4A5-LgBiT (BSD) (Omachi K. et al., Cell Chemical Biology 2018, 25, 634-643) in this order, exchange of drug resistance containing medium, passage and preservation of surviving cells were repeated whereby a cell line stably expressing α345 (IV) trimer was generated. COL4A5 variant G1244D was prepared using pLVSIN EF1α BSD COL4A5-LgBiT as a template and using Quikchange (registered trade mark) II Site-directed Mutagenesis Kit (STRATAGENE (registered trade mark)). The primers used were follows. PCR reactions (95° C. for 1 min, one cycle; 95° C. for 50 sec, 60° C. for 50 sec, 68° C. for 90 sec/1 kb, 18 cycles; 68° C. for […]) were performed with each Primer. The base sequence of DNA was confirmed by the cycle sequence method (Sigma-Aldrich JAPAN).
A cell line stably expressing split nano luciferase-fused α345 required for the NanoLuc α345 trimer assay was seeded on LumiNuc 96 well white plate (Thermo). After 24 hr, the cells were cultured in phenol red-free DMEM complete medium containing 2-phosphate ascorbic acid (200 μM), substrates were added to the culture supernatant and cells according to the standard method of NanoGlo live cell assay (Promega) reagent, and luminescence was confirmed with luminometer GloMax Navigator (Promega).
The cell line stably expressing α345 (COL4A5-G1244D) was detached and seeded on LumiNuc 96 well white plate (Thermo) at a density of 2×10^4 cells/well. 24 hr after seeding, the medium was exchanged with a phenol red-free DMEM complete medium containing 2-phosphate ascorbic acid (200 μM) and each concentration of cyclosporin A (CsA) (0.1, 0.5, 1, 2, 5, 10 μM), or each concentration of PSC-833 (0.5, 1, 2, 5, 10 μM), or each concentration of Alisporivir (0.1, 0.5, 5, 10 μM) and the cells were cultured. A substrate was added 24 hr later to the culture supernatant according to the standard method of NanoGlo live cell assay (Promega) reagent, and luminescence (index of trimer secretion) was measured by luminometer GloMax Navigator (Promega). The control solvent (CON) used was dimethyl sulfoxide (DMSO).

PPIF (cyclophilin D) [7] = target: T1, PPIF (cyclophilin D); assay: Collagen trimer secreting ability of G1244D HEK293T cells after knock-down of cyclophilins with siRNA; type: cell-based; conditions: G1244D mutant-transfected HEK293T cells, FIG. 9
Protocol: as §1
Lipofectamine RNAi Max was used for transfection of siRNA. The final siRNA concentration was adjusted to 15 nM, and transfection was performed according to the standard protocol. 24 hr after siRNA introduction, the cells were detached and reseeded on a LumiNuc 96 well white plate (Thermo) at 4×10^4 cells/well. 24 hr thereafter, the medium was exchanged with a phenol red-free DMEM complete medium containing 2-phosphate ascorbic acid (200 μM) and Cyclosporin A (CsA) (1 μM), or Alisporivir (2 μM) and the cells were cultured. Substrates were added 24 hr later to the culture supernatant and cells according to the standard method of NanoGlo live cell assay (Promega) reagent, and luminescence (index of trimer secretion) was measured by luminometer GloMax Navigator (Promega). The control solvent (CON) used was DMSO. […]

Compound: C/C=C/C[C@@H](C)[C@@H](O)[C@H]1C(=O)N[C@@H](CC)C(=O)N(C)[C@H](C)C(=O)N(CC)[C@@H](C(C)C)C(=O)N[C@@H](C(C)C)C(=O)N(C)[C@@H](CC(C)C)C(=O)N[C@@H](C)C(=O)N[C@H](C)C(=O)N(C)[C@@H](CC(C)C)C(=O)N(C)[C@@H](CC(C)C)C(=O)N(C)[C@@H](C(C)C)C(=O)N1C [Alisporivir]
nephrotoxicity in clinical trials [1]: no nephrotoxicity | collagen trimer secretion in COL4A5 variants [2]: exhibited a significant effect in G1030S, G1107R, G1220D, G1241C, G1241V, G1244D, and Exon41-deleted variants | secretion of trimers of COL4a5/WT-containing collagen [3]: did not show an influence on COL4a5/WT | effect of promoting the secretion of collagen trimers in cyclophilin knock-down cells (PPIF (cyclophilin D) [4]): decreased only in the cells knocked down with PPIF (cyclophilin D) | calcineurin inhibition (calcineurin): does not inhibit calcineurin | extracellular secretion of collagen trimers, COL4a5/G1241V ([5]; G1241V stable cell line, FIG. 5 lower): promoted extracellular secretion of collagen trimers | secretion level of collagen trimer as a function of concentration [6]: increases depending on the concentration of Alisporivir | action of promoting collagen trimer secretion compared with CsA ([6]; COL4A5-G1244D, concentrations of 5 μM and 10 μM, FIG. 4): stronger action of promoting collagen trimer secretion than CsA | collagen trimer secretion (luminescence of culture supernatant, ratio to DMSO-treated group) [6]: showed an action of promoting collagen trimer secretion

Compound: C/C=C/C[C@@H](C)[C@@H](O)[C@H]1C(=O)N[C@@H](CC)C(=O)N(C)[C@H](C)C(=O)N(C)[C@@H]([C@@H](C)CN2CCN(CCOC)CC2)C(=O)N[C@@H](C(C)C)C(=O)N(C)[C@@H](CC(C)C)C(=O)N[C@@H](C)C(=O)N[C@H](C)C(=O)N(C)[C@@H](CC(C)C)C(=O)N(C)[C@@H](CC(C)C)C(=O)N(C)[C@@H](C(C)C)C(=O)N1C [NIM258] (cyclo(A[dA][NMeL][NMeL][NMeV][MeBmt][Abu][dNMeA][X1]V[NMeL]))
calcineurin inhibition (calcineurin): does not inhibit calcineurin | extracellular secretion of collagen trimer compared with DMSO-administered group ([5]; 5 μM or 10 μM, G1241V cell line per FIG. 6): extracellular secretion of collagen trimers was promoted

intracellular expression level of collagen trimer ([6]; COL4A5-G1244D line, PSC-833 0.5-10 μM): did not affect | collagen trimer secretion (luminescence of culture supernatant, ratio to DMSO-treated group) [6]: did not affect collagen trimer secretion
Compound: C/C=C/C[C@@H](C)C(=O)[C@H]1C(=O)N[C@@H](C(C)C)C(=O)N(C)CC(=O)N(C)[C@@H](CC(C)C)C(=O)N[C@@H](C(C)C)C(=O)N(C)[C@@H](CC(C)C)C(=O)N[C@@H](C)C(=O)N[C@H](C)C(=O)N(C)[C@@H](CC(C)C)C(=O)N(C)[C@@H](CC(C)C)C(=O)N(C)[C@@H](C(C)C)C(=O)N1C [PSC-833]
calcineurin inhibition (calcineurin): does not inhibit calcineurin | secretion level of collagen trimer as a function of concentration [6]: does not increase even when the amount of PSC-833 is increased to 10 μM

Compound: siPPIF: siRNA against human PPIF (cyclophilin D), sense GGCAGAUGUCGUCCCAAAG, antisense CUUUGGGACGACAUCUGCC (SEQ ID NO: 27/28) (listed as RNA, chemistry not given here)
secretion level of collagen trimer, ratio to siGL2-treated group (PPIF (cyclophilin D) [7]): promotion of collagen trimer secretion was confirmed

Source: US20230082311A1, “DRUG FOR CURATIVE THERAPY OF INTRACTABLE HEREDITARY RENAL ALPORT SYNDROME” (NATIONAL UNIVERSITY CORPORATION KUMAMOTO UNIVERSITY, priority 2019, published 2023)
